{"source": "ChEMBL document CHEMBL3785023", "about": "“Development and Pharmacological Characterization of Selective Blockers of 2-Arachidonoyl Glycerol Degradation with Efficacy in Rodent Models of Multiple Sclerosis and Pain” (J Med Chem, 2016)", "system": "Mus musculus", "assay": "Analgesic activity in po dosed CD-1 mouse model of oxaliplatin-induced neuropathic pain assessed as reversal of lowering of threshold to cold stimuli administered on day 14 after oxaliplatin addition by cold plate test", "type": "functional, organism-based", "data": [{"smiles": "O=C1[C@H](c2ccc(F)cc2)[C@@H](c2ccc3c(c2)OCO3)N1C1CCN(C(=O)n2cncn2)CC1", "note": "(racemic)", "values": [{"measurement": "Activity", "result": "Dose-dependent effect"}]}]}
